Reference: patent US5516789A, “Lipoxygenase and cyclooxygenase inhibiting compounds” (Abbott Laboratories, priority 1995, dated 1996)
pIC50: −log10 of the molar value.

Columns and labels:
[1] = system: TXB2; experiment: Dog ex vivo A23187-stimulated blood after oral dosing, inhibition of TXB2; assay type: in vivo; details: beagle dog, oral dose of 2 mg/kg, 8 hours after dosing; blood incubated with 50 μM A23187
Text: (§1) Inhibition of both leukotriene formation and prostaglandin formation was also shown in the dog. This was done using the method described by Carter et al. (Carter, G. W., Young, P. R., Albert, D. H., Bouska, J., Dyer, R., Bell, R. L., Summers, J. B. and Brooks, D. W.: J. Pharmacol. Exp. Ther. 256: 929-937, 1991.). Compound was suspended in 0.2% methylcellulose with a Potter-Elvehjem homogenizer equipped with a Teflon-coated pestle and administered orally to beagle dogs (Marshall Farms, North Rose, N.Y.) All animals were fasted overnight before dosing but allowed water ad libitum. Heparinized blood samples were obtained before and at various times after compound administration. Aliquots of blood were incubated at 37° with 50 μM with calcium ionophore, A23187. After 30 minutes, the blood was placed in an ice bath and analyzed for LTB4 and TXB2 as described above.

[2] = system: biosynthesis of leukotrienes; experiment: Rat pleural inflammation model (A23187), inhibition of leukotriene biosynthesis in vivo; details: oral dose of 10 mg/kg
Procedure: (§2) Pleural inflammation was induced in male rats following the method of Rao et. al., Life Sci, 1993, 53, 52. Animals were dosed with experimental compounds in 0.2% HPMC one hour prior to the intrapleural injection of the calcium ionophore, A23187. The rats were lightly anesthetized with Penthrane (Abbott Laboratories) and injected intrapleurally with 0.5 ml of 2% ethanol in injectable saline (Abbott Laboratories) containing 20 μg of A23187 (Cal BioChem-Novabiochem). Thirty minutes later the animals were euthanized and the pleural cavities lavaged with ice cold saline. The lavage fluid was then added to ice cold methanol (final methanol concentration 30%) to lyse cells and precipitate protein.
(§3) Cyclooxygenase activity of whole blood was determined by analysis of these samples for TXB2 by EIA (Advanced Magnetics, Cambridge, Mass.).

[3] = system: LTB4; experiment: Dog ex vivo A23187-stimulated blood after oral dosing, inhibition of LTB4; assay type: in vivo; details: beagle dog, oral dose of 2 mg/kg, 8 hours after dosing; blood incubated with 50 μM A23187
Text: as §1

[4] = system: biosynthesis of prostaglandins; experiment: Rat pleural inflammation model (A23187), inhibition of prostaglandin biosynthesis in vivo; details: oral dose of 10 mg/kg, TXB2 by EIA
Procedure: as §2, §3

[5] = system: LTB4 formation in human whole blood; experiment: Calcium ionophore (A23187)-induced LTB4 biosynthesis in human whole blood; assay type: cell-based; details: human heparinized whole blood; 15 min preincubation at 37° C.; A23187 50.0 μM, 30 min; read-out: IC50, in vitro inhibitory potency against stimulated LTB4 formation in human whole blood
Procedure: Inhibition of leukotriene biosynthesis was evaluated in an assay, involving calcium ionophore-induced LTB4 biosynthesis in human whole blood. Human heparinized whole blood was preincubated with test compounds or vehicle for 15 min at 37° C. followed by calcium ionophore A23187 challenge (final concentration of 50.0 μM) and the reaction terminated after 30 min by adding two volumes of methanol. The methanol extract was analyzed for LTB4 using a commercially available immunoassay.

[6] = system: biosynthesis of leukotrienes; experiment: Rat peritoneal anaphylaxis model, inhibition of leukotriene biosynthesis in vivo after oral administration; details: oral gavage one hour prior to antigen challenge, @ 15 mg/kg
Procedure: Inhibition of the biosynthesis of leukotrienes in vivo after oral administration of compound was determined using a rat peritoneal anaphylaxis model similar to that described by Young and coworkers (Young, P. R.; Bell, R. L.; Lanai, C.; Summers, J. B.; Brooks, D. W.; Carter, G. W. (1991): Inhibition of leukotriene biosynthesis in the rat peritoneal cavity. Eur. J. Pharmacol 1991, 205, 259-266). In this model rats were injected intraperitoneally (ip) with rabbit antibody to bovine serum albumin (BSA) and three hours later injected ip with BSA to induce an antigen-antibody response. Rats were sacrificed 15 minutes after this challenge and the peritoneal fluids were collected and analyzed for leukotriene levels. Test compounds were administered by gavage one hour prior to the antigen challenge. To measure immunoreactive leukotriene levels in the various lavage fluids, the samples were diluted 1:3 (v/v) with the EIA buffer containing 100 mM phosphate, 1.5 mM sodium azide, 400 mM sodium chloride, 0.1 mM sodium EDTA and 0.1% BSA, pH 7.4. Methanol, at a final concentration of 22%, was included in the assay standards to compensate for the amount in the biological samples. EIA reagents for cysteinyl leukotrienes determination were purchased from, Cayman Chemical Co., Ann Arbor, Mich. The LTE4 tracer was prepared in-house. The immunoassays for LTE4 were then conducted as recommended by the manufacturer with the exception that volumes were adjusted to accommodate automation using a Cetus Propette (Cetus Corp., San Francisco, Calif.). The EIA was conducted in 96 well microtiter plates (Nunc Roskilde, Denmark) and optical density measured using a microplate reader (Vmax, Molecular Devices Corp., Menlo Park, Calif.). Percent inhibition values were determined by comparing the treatment group to the mean of the control group.

SMILES	pIC50 [5]	% Inhibition (in vivo, leukotriene biosynthesis) [6]	other results
COc1ccc2cc([C@H](C)C(=O)ON(C(N)=O)[C@H](C)C#Cc3ccc(Cc4ccc(F)cc4)s3)ccc2c1 [Example 21, N-[(S)-2-(6-methoxynaphth-2-yl)propionyloxy]-N-[3-(5-(4-fluorophenylmethyl)thien-2-yl)-(R)-1-methyl-2-propynyl]urea]	–	–	inhibition of TXB2 [1]: 47%; inhibition of the biosynthesis of leukotrienes [2]: 71%; inhibition of LTB4 [3]: 54%; inhibition of the biosynthesis of prostaglandins [4]: 68%
CC(C)Cc1ccc(C(C)C(=O)ON(C(N)=O)C(C)C#Cc2ccc(Oc3ccc(F)cc3)o2)cc1 (centres unmarked) [Example 19, N-[2-(4-(2-methylpropyl)phenyl)propionyloxy]-N-[3-(5-(4-fluorophenoxy)fur-2-yl)-1-methyl-2-propynyl]urea]	5.92	41%	–
CC(=O)Oc1ccccc1C(=O)ON(C(N)=O)C(C)C#Cc1ccc(Oc2ccc(F)cc2)o1 (centres unmarked) [Example 37, N-[2-(acetoxybenzoyl)oxy]-N-[3-(5-(4-fluorophenoxy)fur-2-yl)-1-methyl-2-propynyl]urea]	6.80	–	–
COc1ccc2cc([C@H](C)C(=O)ON(C(N)=O)C(C)C#Cc3ccc(Oc4ccc(F)cc4)o3)ccc2c1 (stereo partly drawn) [Example 18, N-[(S)-2-(6-methoxynaphth-2-yl)propionyloxy]-N-[3-(5-(4-fluorophenoxy)fur-2-yl)-1-methyl-2-propynyl]urea]	5.89	40%	–
COc1ccc2c(c1)c(CC(=O)ON(C(N)=O)C(C)c1cc3ccccc3s1)c(C)n2C(=O)c1ccc(Cl)cc1 (centres unmarked) [Example 4, N-[2-(N-(4-chlorobenzoyl)-5-methoxy-2-methyl-[1H]-indol-3-yl)acetoxy]-N-[1-(benzo[b]thien-2-yl)ethyl] urea]	5.74	–	–
CC(C)Cc1ccc(C(C)C(=O)ON(C(N)=O)C(C)c2ccoc2)cc1 (centres unmarked) [Example 20, N-[2-(4-(2-methylpropyl)phenyl)propionyloxy]-N-[1-(fur-3-yl)ethyl]urea]	5.00	43%	–
COc1ccc2cc([C@H](C)C(=O)ON(C(N)=O)C(C)c3ccoc3)ccc2c1 (stereo partly drawn) [Example 1, N-[(S)-2-(6-methoxynaphth-2-yl)propionyloxy]-N-[1-(fur-3-yl)ethyl]urea]	5.40	–	–
CC(C)Cc1ccc(C(C)C(=O)ON(C(N)=O)C(C)c2cc3ccccc3s2)cc1 (centres unmarked) [Example 3, N-[2-(4-(2-methylpropyl)phenyl)propionyloxy]-N -[1-(benzo[b]thien-2-yl)ethyl]urea]	5.24	–	–
